Data reported in ChEMBL document CHEMBL1141406, “Design, synthesis, and evaluation of naphthalene-sulfonamide antagonists of human CCR8” (J Med Chem, 2007).
pIC50, pKi: −log10 of the molar value.

What was measured:
[1] = Stability in rat at 10 mg/kg, po and 1 mg/kg, iv; type: ADME, organism-based; settings: in vivo
[2] = molecular target: 5-hydroxytryptamine receptor 1B (Homo sapiens) (UniProt P28222); assay: Inhibition of 5HT1B receptor at 10 uM
[3] = Volume of distribution of steady state in dog at 10 mg/kg, po and 1 mg/kg, iv; type: ADME, organism-based, Canis lupus familiaris; settings: in vivo, read-out: Vss
[4] = molecular target: T1, 5-hydroxytryptamine receptor 1A (Homo sapiens) (UniProt P08908); assay: Inhibition of human recombinant 5HT1A receptor at 10 uM
T1 sequence (whole entry): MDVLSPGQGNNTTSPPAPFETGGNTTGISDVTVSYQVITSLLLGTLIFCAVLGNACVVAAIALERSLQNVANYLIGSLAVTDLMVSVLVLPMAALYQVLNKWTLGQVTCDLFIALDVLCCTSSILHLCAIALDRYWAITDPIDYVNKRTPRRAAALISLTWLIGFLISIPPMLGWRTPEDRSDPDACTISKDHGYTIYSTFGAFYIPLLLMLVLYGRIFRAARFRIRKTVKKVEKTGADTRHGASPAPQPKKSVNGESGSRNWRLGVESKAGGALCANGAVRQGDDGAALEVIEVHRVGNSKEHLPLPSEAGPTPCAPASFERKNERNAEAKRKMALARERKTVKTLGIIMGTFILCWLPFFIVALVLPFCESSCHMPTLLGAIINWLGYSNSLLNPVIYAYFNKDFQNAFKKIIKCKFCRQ

[5] = molecular target: Adrenergic receptor alpha-1 (Homo sapiens) (UniProt P35348+P25100+P35368); assay: Inhibition of non selective adrenergic alpha-1 receptor at 10 uM; type: protein assay
[6] = Bioavailability in rat at 10 mg/kg, po and 1 mg/kg, iv; type: ADME, organism-based; settings: in vivo
[7] = molecular target: Muscarinic acetylcholine receptor (Homo sapiens) (UniProt P20309+P08173+P11229+P08172+P08912); assay: Inhibition of peripheral non-selective guinea pig muscarinic receptor at 10 uM; type: protein assay; settings: Cavia porcellus, target entry is the homologue from another species
[8] = Clearance in rat at 10 mg/kg, po and 1 mg/kg, iv; type: ADME, organism-based; settings: in vivo
[9] = Ratio of apparent permeability from basolateral to apical over apical to basolateral in Caco-2 cells; settings: human, read-out: Selectivity ratio
[10] = Stability in mouse plasma; type: ADME, cell-free
Rattus norvegicus [11] = species: Rattus norvegicus; assay: Inhibition of rat calcium channel L type at dihydropyridine site at 10 uM
[12] = Intrinsic clearance in liver microsomes; settings: human
[13] = molecular target: Beta-2 adrenergic receptor (Homo sapiens) (UniProt P07550); assay: Inhibition of human recombinant adrenergic beta 2 receptor at 10 uM
Rattus norvegicus [14] = species: Rattus norvegicus; assay: Inhibition of rat non-selective opiate receptor at 10 uM
[15] = molecular target: Voltage-gated inwardly rectifying potassium channel KCNH2 (Homo sapiens, UniProt Q12809); assay: Binding affinity to hERG expressed in HEK293 cells; type: cell-based
Rattus norvegicus [16] = species: Rattus norvegicus; assay: Inhibition of rat calcium channel L type at benzothiazepine site at 10 uM
[17] = molecular target: D(1A) dopamine receptor (Homo sapiens) (UniProt P21728); assay: Inhibition of human recombinant dopamine D1 receptor at 10 uM
[18] = molecular target: Beta-1 adrenergic receptor (Homo sapiens) (UniProt P08588); assay: Inhibition of human adrenergic beta 1 receptor at 10 uM
[19] = Clearance in dog at 10 mg/kg, po and 1 mg/kg, iv; type: ADME, organism-based, Canis lupus familiaris; settings: in vivo
Cytochrome P450 3A4 = Cytochrome P450 3A4 (Homo sapiens, UniProt P08684); assay: Inhibition of CYP3A4; type: ADME
[20] = molecular target: 5-hydroxytryptamine receptor 2A (Homo sapiens) (UniProt P28223); assay: Inhibition of human 5HT2A receptor at 10 uM
[21] = Volume of distribution of steady state in rat at 10 mg/kg, po and 1 mg/kg, iv; type: ADME, organism-based; settings: in vivo, read-out: Vss
[22] = molecular target: C-C chemokine receptor type 8 (Homo sapiens, UniProt P51685); assay: Binding affinity to human CCR8 expressed in L1.2 cells by FMAT assay; type: cell-based
[23] = Bioavailability in dog at 10 mg/kg, po and 1 mg/kg, iv; type: ADME, organism-based, Canis lupus familiaris; settings: in vivo
[24] = molecular target: Histamine H2 receptor (Rattus norvegicus) (UniProt P25102); assay: Inhibition of rat histamine H2 receptor at 10 uM
[25] = molecular target: T2, Cholecystokinin receptor type A (Rattus norvegicus) (UniProt P30551); assay: Inhibition of rat CCKA at 10 uM
T2 sequence (whole entry): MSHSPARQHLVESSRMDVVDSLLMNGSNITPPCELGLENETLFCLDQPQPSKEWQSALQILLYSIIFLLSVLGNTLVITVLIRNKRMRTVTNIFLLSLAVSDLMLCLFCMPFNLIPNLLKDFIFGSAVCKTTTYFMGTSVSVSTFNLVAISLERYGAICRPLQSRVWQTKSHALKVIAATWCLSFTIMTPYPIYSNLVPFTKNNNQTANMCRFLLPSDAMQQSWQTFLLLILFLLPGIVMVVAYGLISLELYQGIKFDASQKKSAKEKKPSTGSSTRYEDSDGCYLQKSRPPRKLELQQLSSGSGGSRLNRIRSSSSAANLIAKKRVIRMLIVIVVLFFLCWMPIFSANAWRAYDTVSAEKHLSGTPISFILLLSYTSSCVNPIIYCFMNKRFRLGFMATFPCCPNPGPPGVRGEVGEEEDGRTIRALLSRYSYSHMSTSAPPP

[26] = molecular target: Sodium-dependent serotonin transporter (Rattus norvegicus) (UniProt P31652); assay: Inhibition of rat serotonin transporter at 10 uM
[27] = Apparent permeability from apical to basolateral side of Caco-2 cells; type: ADME, cell-based; settings: human
[28] = Apparent permeability from basolateral to apical side of Caco-2 cells; type: ADME, cell-based; settings: human
[29] = molecular target: Sodium-dependent dopamine transporter (Rattus norvegicus) (UniProt P23977); assay: Inhibition of rat dopamine transporter at 10 uM
[30] = Stability in dog at 10 mg/kg, po and 1 mg/kg, iv; type: ADME, organism-based, Canis lupus familiaris; settings: in vivo

Chain of 5-hydroxytryptamine receptor 2A (Homo sapiens) (P28223 whole entry): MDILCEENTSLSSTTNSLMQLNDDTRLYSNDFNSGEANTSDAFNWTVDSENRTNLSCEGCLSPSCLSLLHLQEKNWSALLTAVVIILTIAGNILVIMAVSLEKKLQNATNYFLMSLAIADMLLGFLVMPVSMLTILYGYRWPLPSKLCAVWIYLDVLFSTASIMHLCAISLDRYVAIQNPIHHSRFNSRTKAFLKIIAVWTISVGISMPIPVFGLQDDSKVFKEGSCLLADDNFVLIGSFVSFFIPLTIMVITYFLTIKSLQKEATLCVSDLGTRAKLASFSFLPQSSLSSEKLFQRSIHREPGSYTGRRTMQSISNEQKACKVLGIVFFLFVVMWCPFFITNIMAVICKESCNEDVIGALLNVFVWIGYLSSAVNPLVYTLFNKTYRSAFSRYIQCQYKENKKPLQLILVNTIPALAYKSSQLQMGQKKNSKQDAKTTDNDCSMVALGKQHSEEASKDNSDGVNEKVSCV
Chain of Voltage-gated inwardly rectifying potassium channel KCNH2 (Q12809 whole entry): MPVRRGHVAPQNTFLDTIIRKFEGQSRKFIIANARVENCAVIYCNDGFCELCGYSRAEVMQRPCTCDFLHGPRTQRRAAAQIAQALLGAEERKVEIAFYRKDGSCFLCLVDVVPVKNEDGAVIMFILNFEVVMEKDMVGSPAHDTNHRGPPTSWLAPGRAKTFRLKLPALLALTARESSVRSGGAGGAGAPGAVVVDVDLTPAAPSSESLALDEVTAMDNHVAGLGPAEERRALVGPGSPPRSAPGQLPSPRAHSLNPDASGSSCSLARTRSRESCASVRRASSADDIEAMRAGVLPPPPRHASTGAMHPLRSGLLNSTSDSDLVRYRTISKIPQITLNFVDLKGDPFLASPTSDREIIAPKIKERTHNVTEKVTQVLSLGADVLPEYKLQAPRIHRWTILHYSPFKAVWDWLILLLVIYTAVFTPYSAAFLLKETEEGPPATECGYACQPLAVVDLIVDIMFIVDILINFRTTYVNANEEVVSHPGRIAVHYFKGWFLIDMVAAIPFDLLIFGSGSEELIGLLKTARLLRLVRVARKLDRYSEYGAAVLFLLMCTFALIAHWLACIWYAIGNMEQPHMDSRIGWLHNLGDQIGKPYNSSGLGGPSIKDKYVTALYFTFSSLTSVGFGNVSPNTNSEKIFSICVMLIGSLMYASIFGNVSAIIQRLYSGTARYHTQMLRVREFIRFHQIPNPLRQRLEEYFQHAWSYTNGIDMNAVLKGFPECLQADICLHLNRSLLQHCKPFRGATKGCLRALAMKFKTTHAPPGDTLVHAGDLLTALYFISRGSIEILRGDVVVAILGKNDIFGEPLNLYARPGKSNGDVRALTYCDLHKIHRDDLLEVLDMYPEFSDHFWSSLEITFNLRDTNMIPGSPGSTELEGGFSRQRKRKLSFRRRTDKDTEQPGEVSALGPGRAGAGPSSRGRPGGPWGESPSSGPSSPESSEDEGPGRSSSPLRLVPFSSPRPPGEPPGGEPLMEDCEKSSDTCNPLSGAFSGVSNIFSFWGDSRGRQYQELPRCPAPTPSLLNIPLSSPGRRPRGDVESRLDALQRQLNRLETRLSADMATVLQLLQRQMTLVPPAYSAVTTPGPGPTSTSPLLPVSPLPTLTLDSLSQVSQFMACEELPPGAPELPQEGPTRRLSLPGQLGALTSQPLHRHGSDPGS
Chain of 5-hydroxytryptamine receptor 1B (Homo sapiens) (P28222 whole entry): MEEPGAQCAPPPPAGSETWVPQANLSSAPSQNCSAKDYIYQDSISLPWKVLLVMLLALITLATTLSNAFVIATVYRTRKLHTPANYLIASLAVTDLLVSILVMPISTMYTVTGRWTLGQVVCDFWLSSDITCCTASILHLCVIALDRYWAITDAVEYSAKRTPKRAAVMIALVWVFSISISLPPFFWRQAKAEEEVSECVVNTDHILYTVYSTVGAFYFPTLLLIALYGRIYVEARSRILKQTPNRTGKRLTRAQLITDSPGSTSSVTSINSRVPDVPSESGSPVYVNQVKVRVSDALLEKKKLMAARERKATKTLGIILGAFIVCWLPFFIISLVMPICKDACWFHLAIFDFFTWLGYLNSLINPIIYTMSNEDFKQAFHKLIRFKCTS
Chain of Beta-1 adrenergic receptor (Homo sapiens) (P08588 whole entry, looked up): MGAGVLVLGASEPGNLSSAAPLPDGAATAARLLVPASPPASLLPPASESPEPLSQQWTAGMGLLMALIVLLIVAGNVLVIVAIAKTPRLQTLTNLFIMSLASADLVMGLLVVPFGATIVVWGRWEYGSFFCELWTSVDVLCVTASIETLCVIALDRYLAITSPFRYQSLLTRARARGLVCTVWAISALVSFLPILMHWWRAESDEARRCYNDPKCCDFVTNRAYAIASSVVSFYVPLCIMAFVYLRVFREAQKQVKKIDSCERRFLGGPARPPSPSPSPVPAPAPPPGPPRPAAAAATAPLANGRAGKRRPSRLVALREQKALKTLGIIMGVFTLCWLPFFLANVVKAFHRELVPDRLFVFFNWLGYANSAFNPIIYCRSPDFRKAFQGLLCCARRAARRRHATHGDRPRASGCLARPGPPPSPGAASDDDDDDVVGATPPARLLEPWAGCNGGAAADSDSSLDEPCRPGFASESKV
Chain of D(1A) dopamine receptor (Homo sapiens) (P21728 whole entry): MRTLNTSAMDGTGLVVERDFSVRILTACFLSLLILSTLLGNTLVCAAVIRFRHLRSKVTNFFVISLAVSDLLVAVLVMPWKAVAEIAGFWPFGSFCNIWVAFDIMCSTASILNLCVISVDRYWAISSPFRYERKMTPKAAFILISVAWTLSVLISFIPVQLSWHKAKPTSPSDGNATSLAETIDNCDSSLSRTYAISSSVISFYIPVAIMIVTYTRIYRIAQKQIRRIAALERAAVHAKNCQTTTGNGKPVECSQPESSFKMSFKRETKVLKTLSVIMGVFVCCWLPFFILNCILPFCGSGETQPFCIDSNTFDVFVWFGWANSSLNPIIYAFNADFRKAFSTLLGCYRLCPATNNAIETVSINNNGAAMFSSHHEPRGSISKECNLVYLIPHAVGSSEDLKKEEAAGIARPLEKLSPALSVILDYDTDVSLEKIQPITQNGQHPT
Chain of Sodium-dependent serotonin transporter (Rattus norvegicus) (P31652 whole entry): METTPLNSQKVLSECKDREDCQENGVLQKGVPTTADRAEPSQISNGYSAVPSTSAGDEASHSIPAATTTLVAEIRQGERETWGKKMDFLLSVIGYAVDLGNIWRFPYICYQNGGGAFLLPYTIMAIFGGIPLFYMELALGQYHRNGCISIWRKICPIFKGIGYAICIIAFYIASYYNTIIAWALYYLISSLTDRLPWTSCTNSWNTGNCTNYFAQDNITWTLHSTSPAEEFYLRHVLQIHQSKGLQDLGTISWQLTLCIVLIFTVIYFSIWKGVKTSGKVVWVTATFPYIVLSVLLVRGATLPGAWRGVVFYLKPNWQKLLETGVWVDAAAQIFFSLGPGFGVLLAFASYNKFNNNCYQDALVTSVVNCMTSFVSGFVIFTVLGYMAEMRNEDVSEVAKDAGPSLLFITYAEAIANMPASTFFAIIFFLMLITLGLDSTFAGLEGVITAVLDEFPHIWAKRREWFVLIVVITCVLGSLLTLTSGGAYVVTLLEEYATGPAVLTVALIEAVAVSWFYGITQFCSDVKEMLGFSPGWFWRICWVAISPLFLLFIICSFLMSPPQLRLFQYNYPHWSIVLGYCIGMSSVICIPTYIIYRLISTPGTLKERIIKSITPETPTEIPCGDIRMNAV
Chain of Histamine H2 receptor (Rattus norvegicus) (P25102 whole entry): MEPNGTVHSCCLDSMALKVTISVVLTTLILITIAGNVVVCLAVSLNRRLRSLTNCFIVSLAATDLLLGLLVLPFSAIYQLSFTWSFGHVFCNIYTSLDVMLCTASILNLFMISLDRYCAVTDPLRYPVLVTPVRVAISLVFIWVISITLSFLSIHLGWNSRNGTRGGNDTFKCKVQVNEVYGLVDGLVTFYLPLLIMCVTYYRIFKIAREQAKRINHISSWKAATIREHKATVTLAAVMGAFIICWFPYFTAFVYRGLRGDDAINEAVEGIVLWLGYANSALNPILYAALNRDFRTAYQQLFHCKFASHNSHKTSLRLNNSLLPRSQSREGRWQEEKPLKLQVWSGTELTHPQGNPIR
Chain of C-C chemokine receptor type 8 (P51685 whole entry): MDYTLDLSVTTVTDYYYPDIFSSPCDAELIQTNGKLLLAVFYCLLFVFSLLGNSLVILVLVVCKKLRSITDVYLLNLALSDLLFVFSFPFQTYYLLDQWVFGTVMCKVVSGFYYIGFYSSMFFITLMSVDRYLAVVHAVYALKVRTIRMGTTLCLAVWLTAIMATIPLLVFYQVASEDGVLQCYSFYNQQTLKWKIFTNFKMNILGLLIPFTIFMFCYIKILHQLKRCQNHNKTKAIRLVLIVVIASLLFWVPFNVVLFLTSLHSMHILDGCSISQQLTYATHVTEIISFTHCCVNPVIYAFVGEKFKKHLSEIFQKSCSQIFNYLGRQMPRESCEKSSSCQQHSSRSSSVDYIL
Chain of Beta-2 adrenergic receptor (Homo sapiens) (P07550 whole entry, looked up): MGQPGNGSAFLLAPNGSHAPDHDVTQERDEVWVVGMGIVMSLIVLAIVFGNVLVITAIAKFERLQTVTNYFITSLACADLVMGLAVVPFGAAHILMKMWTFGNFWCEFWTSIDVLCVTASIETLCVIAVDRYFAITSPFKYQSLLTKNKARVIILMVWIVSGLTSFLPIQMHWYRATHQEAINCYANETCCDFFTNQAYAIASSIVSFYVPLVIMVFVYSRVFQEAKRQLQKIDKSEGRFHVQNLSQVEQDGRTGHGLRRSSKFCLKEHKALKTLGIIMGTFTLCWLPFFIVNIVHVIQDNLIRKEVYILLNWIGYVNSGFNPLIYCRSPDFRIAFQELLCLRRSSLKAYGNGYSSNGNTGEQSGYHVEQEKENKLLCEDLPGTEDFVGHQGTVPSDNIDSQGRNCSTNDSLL

For `CCOC(=O)N1CCC(NS(=O)(=O)c2ccc(NC(=O)c3ccccc3C)c3ccccc23)CC1`, which half-life [1] is on record?
Its half-life is 2.6 h.

And the inhibition [2]?
The inhibition was 7.13%.

And the Vd [3]?
Its Vd is 1.5 L/kg.

What about the inhibition [4] of the same compound?
The inhibition was 10.5%.

What about the inhibition [5] of the same compound?
Its inhibition is -8.21%.

And the bioavailability [6]?
The bioavailability was 2%.

And the inhibition [7]?
Its inhibition is 15.6%.

And the clearance [8]?
Its clearance is 23.3 mL/min/kg.

What about the efflux ratio [9] of the same compound?
The efflux ratio was 1.4.

And the half-life [10]?
Its half-life is 8.2 h.

And the inhibition (Rattus norvegicus [11])?
The inhibition was 5.81%.

And the CLint scaled [12]?
Its CLint scaled is 95 mL/min/kg.

And the inhibition [13]?
The inhibition was 21.5%.

And the inhibition (Rattus norvegicus [14])?
The inhibition was 21.4%.

What about the pKi [15] of the same compound?
Its pKi is under 5.00.

What about the inhibition (Rattus norvegicus [16]) of the same compound?
Its inhibition is 10.2%.

What about the inhibition [17] of the same compound?
The inhibition was -5.14%.

And the inhibition [18]?
The inhibition was 2.44%.

What about the clearance [19] of the same compound?
Its clearance is 7 mL/min/kg.

What about the pIC50 (Cytochrome P450 3A4) of the same compound?
Its pIC50 is under 5.00.

What about the inhibition [20] of the same compound?
The inhibition was 18.4%.

What about the Vd [21] of the same compound?
Its Vd is 1.6 L/kg.

And the pKi [22]?
The pKi was 8.80.

And the bioavailability [23]?
Its bioavailability is 10%.

What about the inhibition [24] of the same compound?
The inhibition was 9.16%.

What about the inhibition [25] of the same compound?
The inhibition was -1.01%.

What about the inhibition [26] of the same compound?
Its inhibition is 12%.

And the Papp A→B [27]?
Its Papp A→B is 17 ×10⁻⁶ cm/s.

And the Papp B→A [28]?
The Papp B→A was 24 ×10⁻⁶ cm/s.

What about the inhibition [29] of the same compound?
Its inhibition is -9.19%.

And the half-life [30]?
The half-life was 3.7 h.
